Experiment [1] concerns the target Tyrosine-protein phosphatase non-receptor type 7 (Homo sapiens, UniProt P35236). The class given is functional.
Experiment [2] addresses T1, Tyrosine-protein phosphatase non-receptor type 22 (Homo sapiens, UniProt Q9Y2R2).
T1 sequence (Q9Y2R2 whole entry): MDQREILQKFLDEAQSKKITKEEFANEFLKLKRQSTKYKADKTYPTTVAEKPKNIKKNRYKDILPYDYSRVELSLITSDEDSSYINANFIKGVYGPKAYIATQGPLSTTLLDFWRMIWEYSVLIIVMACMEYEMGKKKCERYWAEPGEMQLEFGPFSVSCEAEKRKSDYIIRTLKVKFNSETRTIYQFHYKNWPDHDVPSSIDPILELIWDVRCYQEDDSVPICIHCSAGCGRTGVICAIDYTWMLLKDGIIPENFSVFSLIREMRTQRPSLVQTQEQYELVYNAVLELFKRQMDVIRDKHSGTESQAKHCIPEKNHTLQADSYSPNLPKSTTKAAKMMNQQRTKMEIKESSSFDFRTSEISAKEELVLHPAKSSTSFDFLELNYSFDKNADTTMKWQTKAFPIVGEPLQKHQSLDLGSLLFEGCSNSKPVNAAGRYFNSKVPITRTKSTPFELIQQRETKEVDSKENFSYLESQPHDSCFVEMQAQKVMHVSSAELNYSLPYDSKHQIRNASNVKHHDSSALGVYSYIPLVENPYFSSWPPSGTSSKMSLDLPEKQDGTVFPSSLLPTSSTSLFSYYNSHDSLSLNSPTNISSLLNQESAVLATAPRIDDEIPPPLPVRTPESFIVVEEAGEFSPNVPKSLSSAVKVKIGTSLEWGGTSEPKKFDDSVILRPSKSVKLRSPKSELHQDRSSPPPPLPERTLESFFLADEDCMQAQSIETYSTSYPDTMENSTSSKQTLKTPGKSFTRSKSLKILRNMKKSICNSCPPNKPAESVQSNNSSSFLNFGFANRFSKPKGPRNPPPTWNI
In kind it is functional.

Experiment [3] has as its target T1, Tyrosine-protein phosphatase non-receptor type 22. The class given is functional. This is another data set of the same source.
Experiment [4] concerns the target T2, fMet-Leu-Phe receptor (Homo sapiens, UniProt P21462).
T2 sequence (P21462 whole entry): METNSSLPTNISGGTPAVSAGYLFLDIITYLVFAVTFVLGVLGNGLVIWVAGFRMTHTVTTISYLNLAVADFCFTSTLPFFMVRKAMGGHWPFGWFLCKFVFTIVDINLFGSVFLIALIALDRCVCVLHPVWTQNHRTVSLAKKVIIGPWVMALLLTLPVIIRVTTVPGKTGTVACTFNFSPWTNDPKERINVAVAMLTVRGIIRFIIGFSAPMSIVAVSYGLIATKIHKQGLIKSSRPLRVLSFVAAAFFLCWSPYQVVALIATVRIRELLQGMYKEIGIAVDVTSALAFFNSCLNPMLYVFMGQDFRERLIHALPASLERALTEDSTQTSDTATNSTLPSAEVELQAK
Kind of experiment: formyl peptide receptor binders – dose response (AID 519). In kind it is functional.

Experiment [5] is described as follows: viability loss in Vero cells – cytotoxicity control for Vif-APOBEC3G degradation inhibitor project, dose response (AID 1117358). Conditions: Vero. In kind it is functional.
For experiment [6], the target named is Peroxisome proliferator-activated receptor gamma/Nuclear receptor coactivator 1 (Homo sapiens, UniProt P37231). Kind of experiment: TR-FRET dose response biochemical High Throughput Screening assay for agonists of the steroid receptor coactivator 1 (SRC-1) recruitment by the peroxisome proliferator-activated receptor gamma (PPAR gamma): non-selective agonists. [Related pubchem assays (depositor defined):AID1300, AID1808, AID504735, AID631]. The class given is protein assay.

Experiment [7] has as its target Peroxisome proliferator-activated receptor gamma/Nuclear receptor coactivator 3 (Homo sapiens, UniProt P37231). Kind of experiment: TR-FRET dose response biochemical High Throughput Screening assay for agonists of the steroid receptor coactivator 3 (SRC-3) recruitment by the peroxisome proliferator-activated receptor gamma (PPAR gamma): non-selective agonists. [Related pubchem assays: 1301 (Confirmation screen.), 1048 (Primary screen.)]. In kind it is functional.

In experiment [8] the target is Peroxisome proliferator-activated receptor gamma/Nuclear receptor coactivator 2 (Homo sapiens, UniProt P37231). Kind of experiment: TR-FRET dose response biochemical High Throughput Screening assay for agonists of the steroid receptor coactivator 2 (SRC-2) recruitment by the peroxisome proliferator-activated receptor gamma (PPAR gamma): non-selective agonists. [Related pubchem assays: 1297, 1032 ]. The class given is functional.

Experiment [9] addresses Mitogen-activated protein kinase 10 (Homo sapiens, UniProt P53779). Kind of experiment: Dose response biochemical screening assay for inhibitors of c-Jun N-Terminal Kinase 3 (JNK3). [Related pubchem assays: 746 ].
Experiment [10] concerns the target Major prion protein (Homo sapiens, UniProt P04156). The class given is functional, cell-based.
Experiment [11] in a line: cells.
For experiment [12], the target named is G-protein coupled receptor 55 (Homo sapiens, UniProt Q9Y2T6). Kind of experiment: inhibition of LPI-stimulated GPR55 beta-arrestin translocation – imaging, U2OS, beta-arrestin-GFP, LPI agonist, primary screen (AID 2013).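 Also: antagonist potency measured as reduced agonist-driven arrestin aggregation.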 The class given is functional.
A short description of experiment [13]: CCR5-tropic HIV-1 fusion blockers – cell-based, CCR5-tropic Env, dose response (AID 2279). In kind it is functional.
Experiment [14] is described as follows: Luminescence Cell-Based Dose Retest to Confirm Inhibitors of Cancer Stem Cells. [Related pubchem assays (depositor defined):AID2717, AID2721]. The class given is functional. Conditions: Homo sapiens.
Experiment [15] has as its target T3, Peroxisome proliferator-activated receptor gamma (Homo sapiens, UniProt P37231).
T3 sequence (P37231 whole entry): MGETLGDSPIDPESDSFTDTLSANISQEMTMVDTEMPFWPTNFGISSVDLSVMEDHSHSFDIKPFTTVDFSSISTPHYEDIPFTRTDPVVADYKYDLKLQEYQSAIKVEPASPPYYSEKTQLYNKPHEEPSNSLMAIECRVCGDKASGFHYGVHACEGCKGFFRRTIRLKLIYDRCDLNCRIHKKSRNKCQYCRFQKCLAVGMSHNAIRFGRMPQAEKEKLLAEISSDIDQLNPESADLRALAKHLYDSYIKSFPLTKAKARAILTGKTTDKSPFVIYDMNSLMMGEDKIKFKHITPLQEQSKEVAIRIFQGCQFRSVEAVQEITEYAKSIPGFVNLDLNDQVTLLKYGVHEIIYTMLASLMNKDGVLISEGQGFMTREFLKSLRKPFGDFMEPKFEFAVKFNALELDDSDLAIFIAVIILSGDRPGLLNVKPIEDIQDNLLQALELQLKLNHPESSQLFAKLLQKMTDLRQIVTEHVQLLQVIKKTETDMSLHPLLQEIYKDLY
Kind of experiment: competitive ligand displacement at PPARg – biochemical, TR-FRET, LanthaScreen, PPARg partial agonist project, dose response (AID 504446).

The target in experiment [16] is T3, Peroxisome proliferator-activated receptor gamma. Kind of experiment: competitive ligand displacement at PPARg – biochemical, fluorescence polarization, PolarScreen, PPARg partial agonist project, dose response (AID 504453).
Experiment [17] shares this target. Kind of experiment: PPARg transcriptional activation, reporter cells – cell-based, luminescence, assay provider, dose response (AID 504447). In kind it is functional.
Experiment [18] deals with Peroxisome proliferator-activated receptor alpha (Homo sapiens, UniProt Q07869). Kind of experiment: Late stage assay provider counterscreen for partial agonists of the peroxisome proliferator-activated receptor gamma (PPARg): Luminescence-based cell-based dose response assay for partial agonists of the peroxisome proliferator-activated receptor alpha (PPARA). [Related pubchem assays (depositor defined):AID1051, AID1300, AID1319, AID1679, AID1808, AID504446, AID504447, AID504452, AID504453, AID631]. In kind it is functional.

In experiment [19] the test system is Vero. Kind of experiment: viability of Vero cells under compound – cytotoxicity control for flavivirus capping enzyme inhibitors (AID 588742). The class given is functional. Conditions: Chlorocebus sabaeus.
In experiment [20] the target is Sphingosine 1-phosphate receptor 1 (Homo sapiens, UniProt P21453). Kind of experiment: Fluorescence-based counterscreen assay for S1P4 agonists: Cell-based dose response high throughput screening assay to identify agonists of the Sphingosine 1-Phosphate Receptor 1 (S1P1). [Related pubchem assays (depositor defined):AID1509, AID1523, AID1801, AID463107, AID463118, AID463119, AID463122, AID463123, AID463129, AID463225, AID504400, AID504460]. The class given is functional.

Experiment [21] concerns the target T4, Sphingosine 1-phosphate receptor 4 (Homo sapiens, UniProt O95977).
T4 sequence (O95977 whole entry): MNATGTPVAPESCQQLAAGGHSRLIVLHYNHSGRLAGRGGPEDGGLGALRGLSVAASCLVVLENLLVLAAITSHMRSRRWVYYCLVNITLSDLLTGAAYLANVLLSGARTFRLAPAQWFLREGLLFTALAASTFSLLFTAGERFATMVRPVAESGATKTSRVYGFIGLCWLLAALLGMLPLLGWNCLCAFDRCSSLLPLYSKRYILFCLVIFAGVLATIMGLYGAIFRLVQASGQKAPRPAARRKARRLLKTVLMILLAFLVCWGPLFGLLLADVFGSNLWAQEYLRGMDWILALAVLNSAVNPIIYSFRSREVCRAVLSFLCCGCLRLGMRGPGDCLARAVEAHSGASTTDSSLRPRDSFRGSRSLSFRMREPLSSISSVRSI
Kind of experiment: Fluorescence dose response cell-based high throughput screening assay for agonists of the Sphingosine 1-Phosphate Receptor 4 (S1P4). [Related pubchem assays: 1509 (Primary screen.), 1523 (Confirmation screen in triplicates.)]. In kind it is functional.

For experiment [22], the target named is Kappa-type opioid receptor (Homo sapiens, UniProt P41145). Kind of experiment: SAR analysis of small molecule agonists of the kappa opioid receptor via a luminescent beta-arrestin assay - Set 3. [Related pubchem assays (depositor defined):AID1777, AID1785, AID1786, AID1966, AID2133, AID2136, AID2284, AID2500]. The class given is functional.

Activity calls are given as the source filed them.

The results in this text go back to ChEMBL document CHEMBL1201862, “PubChem BioAssay data set” (2004).
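For AC50 in this document: cells exposed to compound for roughly 70 hours or longer before luminescence read.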

Consider `O=C(O)CCCNc1cc(N2CCC3(CC2)OCCO3)c2noc3c2c1C(=O)c1ccccc1-3`, for which the figures for the IC50 in experiment [1], in experiment [2] and in experiment [3] were 69.3 µM (active), 68.9 µM (active) and 61.9 µM (active), respectively. In addition, the Ki in experiment [4] was 34.1 µM (inactive). In experiment [5], the CC50 was > 40 µM (active).
For `CC(Sc1ccc2ccccc2n1)C(=O)O` (configuration not stated), the EC50 in experiment [6] was > 79.4 µM (inactive); in [7], > 79.4 µM (not active); in experiment [8], > 79.4 µM (not active). Further, the IC50 was 4.87 µM (active) in [9], 1.56 µM (active) in experiment [10] and > 138 µM (inactive) in experiment [11].
As for `COc1ccc(-c2nn(-c3ccccc3)cc2/C=C2/SC(=S)N(CCC(=O)O)C2=O)c(C)c1`, the IC50 in experiment [12] was 0.665 µM (active); in experiment [13] it was 47.4 µM (active); in [15], 0.194 µM (active); in experiment [16], 0.152 µM (active). The AC50 in experiment [14] is 9.19 µM (active). Moreover, the figures for the EC50 in [17] and in [18] were 0.283 µM (active) and > 3 µM (inactive), respectively. The CC50 in [19] was > 40 µM (active).
For `Clc1ccc(/C=C\c2[nH]ccc3c4ccccc4nc2-3)cc1`, the 50% effective concentration (EC50) was 2.18 µM (active) in [20] and 4.41 µM (active) in experiment [21].
Regarding `FC(F)(F)c1cc(CSc2nnc(-c3ccccn3)n2Cc2ccccc2Cl)ccc1Cl`, in experiment [22], the EC50 is 4.3 µM (active).
